According to publication PMC3076703 (Pharmacogenetics and genomics, 2010):
Changes are numbered by the printed parent chain.

What was measured:
[1] = human; cited from earlier work
UGT2B17 = biological target: T1, UGT2B17 (Homo sapiens, UniProt O75795); format: in vitro ADME
T1 sequence (O75795 24-530): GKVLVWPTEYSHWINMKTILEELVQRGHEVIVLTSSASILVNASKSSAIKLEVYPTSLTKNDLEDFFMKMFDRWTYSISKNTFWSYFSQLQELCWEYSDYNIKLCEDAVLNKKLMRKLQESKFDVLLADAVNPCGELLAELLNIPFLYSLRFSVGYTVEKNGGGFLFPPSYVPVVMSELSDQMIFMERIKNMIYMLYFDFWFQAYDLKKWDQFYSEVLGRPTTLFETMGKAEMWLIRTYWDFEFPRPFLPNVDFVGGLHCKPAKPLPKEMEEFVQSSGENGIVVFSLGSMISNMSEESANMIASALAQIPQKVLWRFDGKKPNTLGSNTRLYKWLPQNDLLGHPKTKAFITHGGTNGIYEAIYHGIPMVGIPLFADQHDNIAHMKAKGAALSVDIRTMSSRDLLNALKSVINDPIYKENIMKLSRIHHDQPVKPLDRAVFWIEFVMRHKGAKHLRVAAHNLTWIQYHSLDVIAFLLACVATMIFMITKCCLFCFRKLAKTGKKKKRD

[2] = system: UGTs 1A1, 1A3, 1A6, 1A7, 1A9, 2B4, 2B7, 2B10, 2B11, 2B15; format: in vitro ADME, human; settings: other UGTs screened; up to 1 mg of UGT-overexpressing cell homogenate
UGT1A4^24Pro/48Val = biological target: T2, UGT1A4^24Pro/48Val (Homo sapiens, UniProt P22310, L48V); format: in vitro ADME
T2 sequence (P22310 29-534 L48V): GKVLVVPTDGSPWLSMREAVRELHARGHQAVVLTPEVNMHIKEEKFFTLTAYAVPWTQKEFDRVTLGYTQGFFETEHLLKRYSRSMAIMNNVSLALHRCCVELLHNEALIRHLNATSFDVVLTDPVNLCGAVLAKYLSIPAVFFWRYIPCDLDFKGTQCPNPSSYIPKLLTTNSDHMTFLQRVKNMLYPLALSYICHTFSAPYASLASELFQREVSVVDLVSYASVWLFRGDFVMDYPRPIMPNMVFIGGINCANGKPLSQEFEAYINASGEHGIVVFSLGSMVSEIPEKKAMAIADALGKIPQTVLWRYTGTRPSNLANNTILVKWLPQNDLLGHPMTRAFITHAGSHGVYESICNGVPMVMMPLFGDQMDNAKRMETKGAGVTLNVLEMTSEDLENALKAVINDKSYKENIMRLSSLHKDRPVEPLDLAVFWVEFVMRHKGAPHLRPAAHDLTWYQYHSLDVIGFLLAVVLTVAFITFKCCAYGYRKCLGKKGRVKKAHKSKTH

[3] = individuals taking exemestane; cited from earlier work
UGT1A4^24Thr/48Leu = biological target: T3, UGT1A4^24Thr/48Leu (Homo sapiens, UniProt P22310); experiment: Glucuronidation assay, UGT1A4 24Thr/48Leu-overexpressing HEK293 cell homogenate; format: in vitro ADME
T3 sequence (P22310 29-534): T2 sequence (P22310 29-534 L48V) with V20L

UGT1A4^24Pro/48Leu = biological target: T4, UGT1A4^24Pro/48Leu (Homo sapiens, UniProt P22310); experiment: Glucuronidation assay, UGT1A4 24Pro/48Leu-overexpressing HEK293 cell homogenate; format: in vitro ADME
T4 sequence (P22310 29-534): T2 sequence (P22310 29-534 L48V) with V20L

UGT1A8 = biological target: T5, UGT1A8 (Homo sapiens, UniProt Q9HAW9); experiment: Glucuronidation assay, UGT1A8-overexpressing HEK293 cell homogenate; format: in vitro ADME
T5 sequence (Q9HAW9 26-530): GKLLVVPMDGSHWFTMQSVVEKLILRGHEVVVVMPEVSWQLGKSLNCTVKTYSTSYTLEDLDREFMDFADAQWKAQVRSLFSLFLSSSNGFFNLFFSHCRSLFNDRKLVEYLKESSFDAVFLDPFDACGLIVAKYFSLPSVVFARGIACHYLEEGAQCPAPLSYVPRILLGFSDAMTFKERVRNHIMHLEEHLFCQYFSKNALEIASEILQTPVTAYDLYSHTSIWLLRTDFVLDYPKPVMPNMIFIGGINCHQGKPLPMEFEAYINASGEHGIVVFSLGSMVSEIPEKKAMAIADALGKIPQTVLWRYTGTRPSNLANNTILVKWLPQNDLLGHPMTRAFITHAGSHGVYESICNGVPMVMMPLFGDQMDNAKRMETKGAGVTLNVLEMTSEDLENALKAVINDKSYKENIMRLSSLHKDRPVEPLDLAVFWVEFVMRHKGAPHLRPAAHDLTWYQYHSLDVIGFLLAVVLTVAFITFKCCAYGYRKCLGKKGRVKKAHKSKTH

SMILES | excreted as parent compound [1] [%] | fecal excretion [1] | urinary excretion [1] | Km (UGT2B17) [µM] | Vmax (UGT2B17; normalized per μg UGT protein) [pmol/min/μg UGT protein] | glucuronidation activity in UGT screen (UGT2B17; up to 600 μmol/l substrate) | glucuronidation activity in UGT screen [2] | Km (UGT1A4^24Pro/48Val) [µM] | Vmax (UGT1A4^24Pro/48Val; normalized per μg UGT protein) [pmol/min/μg UGT protein] | plasma level as share of parent exemestane [3] | Km (UGT1A4^24Thr/48Leu) [µM] | Vmax (UGT1A4^24Thr/48Leu; normalized per μg UGT protein) [pmol/min/μg UGT protein] | Km (UGT1A4^24Pro/48Leu; UGT1A4 24Pro/48Leu) [µM] | Vmax (UGT1A4^24Pro/48Leu; UGT1A4 24Pro/48Leu, normalized per μg UGT protein) [pmol/min/μg UGT protein] | glucuronidation activity in UGT screen (UGT1A4^24Pro/48Leu; UGT1A4, up to 600 μmol/l substrate) | Km (UGT1A8) [µM] | Vmax (UGT1A8; normalized per μg UGT protein) [pmol/min/μg UGT protein] | glucuronidation activity in UGT screen (UGT1A8; up to 600 μmol/l substrate)
C=C1C[C@@H]2[C@H](CC[C@]3(C)C(=O)CC[C@@H]23)[C@@]2(C)C=CC(=O)C=C12 [exemestane, 6-methylenandrosta-1,4-diene-3,17-dione] | 1 | around 42% | around 42% | – | – | – | – | – | – | – | – | – | – | – | – | – | – | –
C=C1C[C@H]2[C@@H]3CC[C@H](O)[C@@]3(C)CC[C@@H]2[C@@]2(C)C=CC(=O)C=C12 [17-dihydroexemestane] | – | – | – | 15 ± 2.7 | 2.0 ± 0.25 | detectable activity | None of the other UGTs screened in our assays exhibited any glucuronidation activity | 36 ± 5.4 | 0.40 ± 0.03 | 35–40% | 28 ± 7.8 | 0.26 ± 0.04 | 34 ± 3.9 | 0.27 ± 0.01 | detectable activity | 14 ± 3.9 | 0.30 ± 0.06 | detectable activity
